Columns and labels:
[1] = tested on: cortical release of acetylcholine; test: In vivo measurement of the release of acetylcholine by intra-cortical microdialysis in the conscious Wistar rat; details: 10 mg/kg IP, median prefrontal cortex
Protocol: The systemic administration of nicotine and nicotinic agonists causes an increase, in vivo, of acetylcholine in various regions of the brain (Neurochem. Res., 1996, 21, 1181-1186; Eur. J. Pharmacol., 1998, 351, 181-188; Br. J. Pharmacol., 1999, 127, 1486-1494). A microdialysis probe is implanted in the median prefrontal cortex of male Wistar rats. Six or seven days after they have been implanted, the probes are perfused with Ringer's solution (NaCl 147 mM, KCl 2.7 mM, CaCl2 1.2 mM, MgCl2 1 mM, neostigmine 20 nM) at a flow rate of 1 μl/min, the animal being free to move. After 2 hours in the animal quarters, the product under test is administered by the intraperitoneal route. A group of control animals receives the solvent used for the product. The dialysates (30 μl) are then collected every 30 minutes for 4 hours in order to measure the extra-synaptic cortical concentrations of acetylcholine by means of HPLC with amperometric detection. The results are expressed in pg of acetylcholine/dialysate, and inter-group comparisons are carried out by means of variance analysis, using 2 factors (treatment×time), with measurements being repeated over time.

[2] = tested on: NMRI mouse; test: Abdominal contractions induced by phenyl-p-benzoquinone (PBQ) in the NMRI mouse; assay type: in vivo; details: 10 mg/kg IP
Protocol: Intraperitoneal administration of an alcoholic solution of PBQ causes abdominal cramps in the mouse (Proc. Soc. Exp. Biol., 1957, 95, 729-731). The cramps are characterised by repeated contractions of the abdominal musculature, accompanied by extension of the hind limbs. Most analgesics antagonise these abdominal cramps (Brit. J. Pharmacol. Chem., 1968, 32, 295-310). At t=0 min., the animals are weighed and the compound being studied is administered by the IP route. A group of control animals is given the solvent used for the compound. At t=30 min., an alcoholic solution of PBQ (0.2%) is administered by the IP route in a volume of 0.25 ml/mouse. Immediately after administration of the PBQ, the animals are placed in cylinders of plexiglass (L=19.5 cm; I.D.=5 cm). From t=35 min. to t=45 min., the animals' reaction is observed and the experimenter notes the total number of abdominal cramps per animal. The results are expressed as the percentage inhibition of the number of abdominal cramps measured in the control animals at the active dose of the compound studied.

[3] = target: T1, type α4β2 central nicotinic receptors (Rattus norvegicus, UniProt P09483+P12390); test: Displacement of binding of [3H]-cytisine to type α4β2 nicotinic receptors of rat brain; details: rat brain membranes, read-out: Affinity (Ki, nM) for type α4β2 receptors
T1 construct: from tissue; host or cells: rat brain membranes
T1 sequence (P09483 31-630): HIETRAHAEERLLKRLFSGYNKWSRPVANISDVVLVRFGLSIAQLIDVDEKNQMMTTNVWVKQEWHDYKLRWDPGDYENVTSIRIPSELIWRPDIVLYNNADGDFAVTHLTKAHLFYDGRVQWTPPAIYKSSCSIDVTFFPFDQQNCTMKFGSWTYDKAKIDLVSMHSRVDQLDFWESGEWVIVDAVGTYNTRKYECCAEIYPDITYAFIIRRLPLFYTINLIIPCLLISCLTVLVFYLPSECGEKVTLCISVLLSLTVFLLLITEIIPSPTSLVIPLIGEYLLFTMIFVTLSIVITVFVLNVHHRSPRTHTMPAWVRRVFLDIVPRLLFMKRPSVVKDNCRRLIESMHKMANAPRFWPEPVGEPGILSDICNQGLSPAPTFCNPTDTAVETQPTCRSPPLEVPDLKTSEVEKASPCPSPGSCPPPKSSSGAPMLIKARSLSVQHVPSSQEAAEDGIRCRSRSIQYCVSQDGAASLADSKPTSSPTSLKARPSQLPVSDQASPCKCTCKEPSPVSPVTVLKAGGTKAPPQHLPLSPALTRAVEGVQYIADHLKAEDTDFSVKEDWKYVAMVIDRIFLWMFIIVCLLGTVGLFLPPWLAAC
T1 sequence (P12390 25-500): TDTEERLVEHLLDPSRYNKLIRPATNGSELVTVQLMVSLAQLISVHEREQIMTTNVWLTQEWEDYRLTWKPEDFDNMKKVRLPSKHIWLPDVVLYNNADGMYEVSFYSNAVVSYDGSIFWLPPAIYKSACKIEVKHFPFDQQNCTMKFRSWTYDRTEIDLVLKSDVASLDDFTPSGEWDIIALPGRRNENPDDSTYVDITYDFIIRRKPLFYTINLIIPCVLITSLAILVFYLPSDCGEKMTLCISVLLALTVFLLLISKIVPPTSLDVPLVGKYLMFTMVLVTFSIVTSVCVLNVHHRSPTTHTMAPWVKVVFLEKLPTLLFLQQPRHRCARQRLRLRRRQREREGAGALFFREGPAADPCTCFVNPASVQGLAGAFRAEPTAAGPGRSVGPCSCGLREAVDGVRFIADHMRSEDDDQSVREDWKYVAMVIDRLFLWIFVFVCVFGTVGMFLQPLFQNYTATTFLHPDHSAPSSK
Protocol: This study, carried out according to the technique described in Molec. Pharmacol., 1990, 39; 9-12, is aimed at determining the affinity of compounds of the present invention for type […] central nicotinic receptors.
Membranes (250 μg/ml) of rat brain are incubated (2 hours, 20° C.) in the presence of a series of concentrations (0.01-10 μM) of each compound of the present invention (diluted starting from a 10 mM stock solution in DMSO) and [^3H]-cytisine (S.A.: 1184 GBq/mmol: 2 nM) in phosphate buffer (NaH2PO4 20 mM, pH 7.4); final volume: 250 μl. The non-specific binding is determined by incubating membranes in the presence of 10 μM of (−)nicotine. The affinity of the compounds of the present invention for type α4β2 central nicotinic receptors is characterised by determination of the Ki.

melting point	Compound	increase of the release of acetylcholine [1]	inhibition of the number of abdominal cramps versus control animals [2]	Ki [3]
100 to 110 °C	CNC1(CNc2cnc(Cl)c(-c3ccncc3)c2)CC1.Cl.Cl [Example 106, 2-Chloro-N-{[1-(methylamino)cyclopropyl]methyl}-3,4′-bipyridin-5-amine dihydrochloride]	–	−87%	–
130 to 138 °C	CNC1(COc2cnc(C)c(-c3ccncc3)c2)CC1.Cl.Cl.Cl [Example 81, Methyl(1-{[(2-methyl-3,4′-bipyridin-5-yl)oxy]methyl}cyclopropyl)amine trihydrochloride]	–	−90%	–
–	[1-({[5-(3-Methoxyphenyl)pyridin-3-yl]oxy}methyl)cyclopropyl]methylamine dihydrochloride [Example 1]	+72%	–	7.9 nM

Compound	melting point	increase of the release of acetylcholine [1]	inhibition of the number of abdominal cramps versus control animals [2]	Ki [3]
CNC1(COc2cnc(Cl)c(-c3ccc(C#N)cc3)c2)CC1.Cl [Example 18, 4-(2-Chloro-5-{[1-(methylamino)cyclopropyl]methoxy}pyridin-3-yl)benzonitrile hydrochloride]	215 to 220 °C	+104%	–	–

Source: patent US20100317698A1, “Polysubstituted Pyridinylaminoalkylene- and Pyridinyloxyalkylene-Cyclopropanamine Compounds, a Process for Their Preparation and Pharmaceutical Compositions Containing Them” (LES LABORATOIRES SERVIER, priority 2006, published 2010)
